# Experimental data taken from patent US20080058356A1, “2,6 Bisheteroaryl-4-Aminopyrimidines as Adenosine Receptor Antagonists” (Neurocrine Biosciences, Inc., priority 2003, published 2008).
row,melting point,SMILES
1,83 to 83.8 °C,"COc1ccc(CCNc2cc(-c3ccco3)nc(-c3nccs3)n2)cc1OC [Example 196, N-[2-(3,4-Dimethoxyphenyl)ethyl]-6-(2-furyl)-2-(1,3-thiazol-2-yl)pyrimidin-4-amine]"
2,147.8 to 148.5 °C,"COc1ccc(COC(=O)Nc2cc(-n3cccn3)nc(-c3ccco3)n2)cc1OC [Example 202, 3,4-Dimethoxybenzyl [2-(2-furyl)-6-(1H-pyrazol-1-yl)pyrimidin-4-yl]carbamate]"
3,189.3 to 190.1 °C,"CCC(=O)Nc1cc(-n2cccn2)nc(-c2ccc(Cl)o2)n1 [Example 51, N-[2-(5-Chloro-2-furyl)-6-(1H-pyrazol-1-yl)pyrimidin-4-yl]propanamide]"
4,146.6 to 147.1 °C,"NCCNc1cc(-n2cccn2)nc(-c2cccs2)n1 [Example 132, N-(2-Aminoethyl)-N-[6-(1H-pyrazol-1-yl)-2-(2-thienyl)pyrimidin-4-yl]amine]"
5,232.7 to 233.1 °C,"Nc1cc(-c2cccnc2)nc(-c2ccco2)n1 [Example 55, 2-(2-Furyl)-6-pyridin-3-ylpyrimidin-4-amine]"
6,209.9 to 211 °C,"Nc1cc(-n2cccn2)nc(-c2ccc(Cl)o2)n1 [Example 50, 2-(5-Chloro-2-furyl)-6-(1H-pyrazol-1-yl)pyrimidin-4-amine]"
7,100.9 to 101.7 °C,"c1coc(-c2nc(NCC3CC3)cc(-n3cccn3)n2)c1 [Example 119, N-(Cyclopropylmethyl)-2-(2-furyl)-6-(1H-pyrazol-1-yl)pyrimidin-4-amine]"
8,116.2 to 117.3 °C,"COc1ccc(CCNc2cc(-n3cccn3)nc(-c3cccs3)n2)cc1OC [Example 134, N-[2-(3,4-Dimethoxyphenyl)ethyl]-6-(1H-pyrazol-1-yl)-2-(2-thienyl)pyrimidin-4-amine]"
9,110.2 to 110.9 °C,"c1ccc(CCNc2cc(-n3cccn3)nc(-c3ccco3)n2)nc1 [Example 125, 2-(2-Furyl)-6-(1H-pyrazol-1-yl)-N-[2-(pyridin-2-yl)ethyl]pyrimidin-4-amine]"
10,129.9 to 130.8 °C,"OCCCNc1cc(-n2cccn2)nc(-c2cccs2)n1 [Example 131, 3-{[6-(1H-Pyrazol-1-yl)-2-(2-thienyl)pyrimidin-4-yl]amino}propan-1-ol]"
11,251.8 to 253.2 °C,"CCC(=O)Nc1cc(-c2cccnc2)nc(-c2ccco2)n1 [Example 54, N-[2-(2-Furyl)-6-pyridin-3-ylpyrimidin-4-yl]propanamide]"
12,104.1 to 105.1 °C,"NCCNc1cc(-n2cccn2)nc(-c2ccco2)n1 [Example 122, N-[2-(2-Furyl)-6-(1H-pyrazol-1-yl)pyrimidin-4-yl]ethane-1,2-diamine]"
13,90 to 91.9 °C,"c1ccc([C@H]2C[C@@H]2Nc2cc(-c3ccco3)nc(-c3nccs3)n2)cc1 (relative stereo) [Example 198, 6-(2-Furyl)-N-[(1S*,2R*)-2-phenylcyclopropyl]-2-(1,3-thiazol-2-yl)pyrimidin-4-amine]"
